Experimental data from patent US6800101B2, “Deactivatable biocides for hydrocarbonaceous products” (priority 2001, dated 2004).

Key:
alkane degrading culture = assay: Evaluation of biocides: growth inhibition on FT diesel and ALAD diesel; format: cell-based; for microbial growth: key: −: No Growth; +: Growth (White Unless Otherwise Indicated)
Procedure: Growth Media: A standard minimal media containing only inorganic nutrients required for bacterial growth was used. The medium used to supply inorganic micronutrients to the growing culture of alkane degrading organisms consisted of 0.1 g/L MgSO4.7H2O, 0.5 g/L NaNO3, 0.02 millimolar FeSO4 and 0.63 g/L K2HPO4 and 0.19 g/L KH2PO4 to achieve a pH of 7 to 7.3.
Test Conditions: 90 ml of growth media and 10 ml of either FT diesel or low sulfur (ALAD) diesel was added to 250 ml flasks. […] In addition to 2 alkynes, glutaraldehyde (glutaric dialdehyde 50%), was tested. The following summarizes the test conditions:
Sterile control (media boiled prior to adding FT or ALAD, not inoculated)
Inculated control (no inhibitor)
100 ppm inhibitor (on a total test volume basis or 1000 ppm in diesel)
1% inhibitor (on a total test volume basis or 10% in diesel).
After inoculation, the flasks were place on a shaker-table (135 rpm) at room temperature and observed daily.

bacteria = format: cell-based
in vivo = format: in vivo; conditions: Cyprinodon variegatus (sheepshead minnow), in vivo
Procedure: (§1) […]. EPA/600/4-90/027F Washington D.C. section 2.02, paragraph 1.) conducted at Pacific Eco-Risk Laboratories, Martinez, Calif.
(§2) LOEC is the Lowest Observable Effect Concentration and is defined as the minimum concentration where mortality is observed for the test species. […] LC-50, the concentration that will cause mortality of 50% of the organisms tested within 96 h, is a calculated value based on all observations.
(§3) The solutions were mixed for 48 hours prior to the start of the bioassays. The solutions were diluted to perform bioassays at starting glutaraldehyde concentrations of 100, 50, 37.5, 25, and 10, 5 mg/L

[1] = system: Larval Sheepshead Minnow (Cyprinodon variegatus); assay: in vivo; format: in vivo
Procedure: as §1, §2, §3

[2] = Cyprinodon variegatus (sheepshead minnow), in vivo, 96 h

## O=CCCCC=O [G, glutaraldehyde]
Alkane degrading culture; ALAD diesel fuel
  effectiveness as biocide: effective at a lower concentration
Alkane degrading culture; FT Diesel + 1 Wt %, Day 0
  microbial growth: −
Alkane degrading culture; FT Diesel + 1 Wt %, Day 1
  microbial growth: −
Alkane degrading culture; FT Diesel + 1 Wt %, Day 5
  microbial growth: −
Alkane degrading culture; FT Diesel + 1 Wt %, Day 7
  microbial growth: −
Alkane degrading culture; FT Diesel + 1 Wt %, Day 8
  microbial growth: −
Alkane degrading culture; FT Diesel + 1 Wt %, Day 19
  microbial growth: −
Alkane degrading culture; FT Diesel + 100 ppm, Day 0
  microbial growth: −
Alkane degrading culture; FT Diesel + 100 ppm, Day 1
  microbial growth: −
Alkane degrading culture; FT Diesel + 100 ppm, Day 5
  microbial growth: −
Alkane degrading culture; FT Diesel + 100 ppm, Day 7
  microbial growth: −
Alkane degrading culture; FT Diesel + 100 ppm, Day 8
  microbial growth: −
Alkane degrading culture; FT Diesel + 100 ppm, Day 19
  microbial growth: +
Alkane degrading culture; Fischer-Tropsch diesel fuel
  effectiveness as biocide: effective at a lower concentration
Alkane degrading culture; LA (ALAD) Diesel + 1 Wt %, Day 0
  microbial growth: −
Alkane degrading culture; LA (ALAD) Diesel + 1 Wt %, Day 1
  microbial growth: −
Alkane degrading culture; LA (ALAD) Diesel + 1 Wt %, Day 5
  microbial growth: −
Alkane degrading culture; LA (ALAD) Diesel + 1 Wt %, Day 7
  microbial growth: −
Alkane degrading culture; LA (ALAD) Diesel + 1 Wt %, Day 8
  microbial growth: −
Alkane degrading culture; LA (ALAD) Diesel + 1 Wt %, Day 19
  microbial growth: −
Alkane degrading culture; LA (ALAD) Diesel + 100 ppm, Day 0
  microbial growth: −
Alkane degrading culture; LA (ALAD) Diesel + 100 ppm, Day 1
  microbial growth: −
Alkane degrading culture; LA (ALAD) Diesel + 100 ppm, Day 5
  microbial growth: −
Alkane degrading culture; LA (ALAD) Diesel + 100 ppm, Day 7
  microbial growth: −
Alkane degrading culture; LA (ALAD) Diesel + 100 ppm, Day 8
  microbial growth: −
Alkane degrading culture; LA (ALAD) Diesel + 100 ppm, Day 19
  microbial growth: −
bacteria
  microbial growth: no growth
In vivo
  LC50 at 96 h: > 100 µg/mL
[1]; [2]
  LOEC: 25 mg/L
  NOEC: 13 mg/L
[1]; second experiment, Glutaraldehyde 100 mg/L, MEA 125 mg/L, molar ratio 1:2, mixed 48 hours
  LC50: >100 µg/mL
